# Results: patent publication US8338471B2, “(2,5-dioxoimidazolidin-i-yl)-n-hydroxy-acetamides as metalloproteinase inhibitors” (Medivir AB, priority 2005, dated 2012)
# Assays:
# Assay type in all cases: biochemical
# [1] = molecular target: T1, recombinant human TACE (Homo sapiens, UniProt P78536); test: TACE enzyme assay (FRET substrate), selectivity versus MMP-12; conditions: fold difference in Ki for TACE compared to MMP-12
# T1 construct: purchased R&D Systems
# Experimental: The activity was measured by a continuous detection of increased fluorescence intensity during 12 min. The substrate consisted of a peptide with a fluorescent donor 7-methoxycoumarin (Mca) and a quenching acceptor 2,4-dinitrophenyl group (Dpa), typically Mca-P-L-A-Q-A-V-Dpa-R-S-S-S-R-NH2 (R&D Systems, ES003). The cleavage site by TACE is the peptide bond between Ala and Val. The compounds were tested at a range of concentrations while the enzyme and substrate concentrations were fixed. A typical TACE assay employs recombinant human TACE (supplied by R&D Systems) in an assay buffer (25 mM Tris-HCl, pH=9.0, 2.5 μM ZnCl2, 0.005% Brij 35). The enzyme concentration (TACE) used was 100 ng/ml, the substrate was prepared at a 100 μM stock solution in DMSO and a 96-well polypropylene plate was used for the reaction mixtures. To each well of the plate was added assay buffer 90.0 μl, enzyme (TACE) 0.09 μl and inhibitor 1 μl. The reactions were started by addition of substrate 10 μl/well, giving a substrate concentration of 10 μM and a total volume of 100 μl/well. The total concentration of DMSO was not above 1%. The assay was performed at ambient temperature. Product fluorescence ([…]) was monitored with a Thermo Labsystems Fluoroskan Ascent plate reader. The Ki was determined by Prism Software.
# (§1) The selectivity for MMP-12 over MMP-3 and TACE was evaluated for a representative selection of the compounds of the invention by comparing the Ki figures obtained when tested in the corresponding enzyme assays, such as those described above. The selectivity is presented as the fold difference in Ki for TACE and MMP-3 compared to MMP-12 and is calculated as the ratio Ki(TACE)/KiMMP-12 and Ki(MMP-3)/KiMMP-12 respectively.
# [2] = molecular target: T2, recombinant human MMP-12 (Homo sapiens, UniProt P39900); test: MMP-12 enzyme assay (FRET substrate)
# T2 construct: purchased R&D Systems; host or cells: mouse myeloma cell line NS-40 (so in the source)
# T2 sequence (P39900 106-470): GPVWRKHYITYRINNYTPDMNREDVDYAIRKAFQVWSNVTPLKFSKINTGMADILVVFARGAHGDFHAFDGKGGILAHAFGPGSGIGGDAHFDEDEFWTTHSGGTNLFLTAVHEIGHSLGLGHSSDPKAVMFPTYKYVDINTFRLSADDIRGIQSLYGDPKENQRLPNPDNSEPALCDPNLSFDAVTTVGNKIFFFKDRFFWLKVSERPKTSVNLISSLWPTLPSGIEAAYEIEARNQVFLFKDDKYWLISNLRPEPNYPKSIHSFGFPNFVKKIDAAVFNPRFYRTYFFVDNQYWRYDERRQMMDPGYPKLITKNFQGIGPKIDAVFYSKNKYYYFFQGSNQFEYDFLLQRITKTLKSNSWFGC
# Experimental: A typical MMP-12 enzyme assay employs recombinant human MMP-12 catalytic domain expressed and purified as described by Parkar A. A. et al, (2000), Protein Expression and Purification, 20:152. The purified enzyme can be used to monitor inhibitors of activity as follows: MMP-12 (50 ng/ml final concentration) is incubated for 60 minutes at room temperature with the synthetic substrate Mac-Pro-Cha-Gly-Nva-His-Ala-Dpa-NH2 in assay buffer (0.1M “Tris-HCl” (trade mark) buffer, pH 7.3 containing O.1M NaCl, 20 mM CaCl2, 0.020 mM ZnCl and 0.05% (w/v) “Brij 35” (trade mark) detergent) in the presence (5 concentrations) or absence of inhibitors. Activity is determined by measuring the fluorescence at λex 320 nm and λem 405 nm. Percent inhibition is calculated as follows: % Inhibition is equal to the (Fluorescenceplus inhibitor−Fluorescencebackground); divided by the (Fluorescenceminus inhibitor−Fluorescencebackground);
# A favoured assay employs full length recombinant human MMP-12, amino acid residues 1 to 470 (Shapiro et al 1993, J Biol Chem 268:23824-23829) expressed in mouse myeloma cell line NS-40. The purified rhMMP-12 typically has the N terminal sequence L17PLNSSTSLE and an SDS-PAGE apparent molecular mass of approx. 56 kDa. Such proteins are available from R&D Systems, USA as a lyophilised 0.2 um filtered solution of 25 mM MES, 0.15M NaCl, 10 mMCaCl2, 0.15% Brij 35, pH 5.5. Auto-activation of the rhMMP-12 can be achieved by dilution to 0.05 mg/ml into TCNB buffer (50 mMTris, 10 mM CaCl2, 0.15M NaCl, 0.05% Brij 35, pH 7) and incubation at 37 degrees for 30 hours. A preferred buffer for MMP work is 50 mM Tris.HCl, pH 7.5, 200 mM Ca acetate.
# Suitable FRET substrates include (7-methoxycoumarin-4-yl)acetyl-Pro-Leu-Gly-Leu-(3-(2,4-dinitrophenoyl)-L-2,3-diaminopropionyl)-Ala-Arg-NH2, commercially available from R&D Systems, USA. Typical specific activities are >500 picomol/min/ug, with rhMMP-12 measured with 10 uM of this substrate, 20 ng activated enzyme in 100 ul TCNB buffer at room temperature.
# An alternative general MMP substrate is Dnp-PLGLWAD-R-NH2.
# Category A indicates ≦50 nM inhibition, category B indicates 51-200 nM inhibition and category C indicates >200 nM: […]
# [3] = molecular target: T3, recombinant human MMP-3 (Homo sapiens, UniProt P08254); test: MMP-3 enzyme assay (FRET substrate), selectivity versus MMP-12; conditions: fold difference in Ki for MMP-3 compared to MMP-12
# T3 construct: purchased R&D Systems
# T3 sequence (P08254 100-477): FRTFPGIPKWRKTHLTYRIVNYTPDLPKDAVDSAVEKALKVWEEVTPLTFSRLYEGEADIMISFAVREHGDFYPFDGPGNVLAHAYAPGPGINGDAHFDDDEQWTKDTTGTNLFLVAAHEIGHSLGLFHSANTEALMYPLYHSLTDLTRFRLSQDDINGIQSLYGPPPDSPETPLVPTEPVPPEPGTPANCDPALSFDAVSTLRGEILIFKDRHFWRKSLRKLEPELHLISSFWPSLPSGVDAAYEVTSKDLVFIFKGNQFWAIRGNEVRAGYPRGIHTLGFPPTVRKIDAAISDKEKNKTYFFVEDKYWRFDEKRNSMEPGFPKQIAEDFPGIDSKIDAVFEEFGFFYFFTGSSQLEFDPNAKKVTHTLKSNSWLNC
# Experimental: The activity was measured by a continuous detection of increased fluorescence intensity during 12 min. The substrate consisted of a peptide with a fluorescent donor 7-methoxycoumarin (Mca) and a quenching acceptor 2,4-dinitrophenyl group (Dpa), typically Mca-Arg-Pro-Lys-Pro-Val-Glu-Nval-Trp-Arg-Lys(Dnp)-NH2 (R&D Systems, ES002). The cleavage site by MMP-3 is the peptide bond between Glu and Nval. The compounds were tested at a range of concentrations, the enzyme concentration (MMP-3) was fixed at 400 ng/ml and the substrate concentrations was 10 μM. The MMP-3 assay used employs recombinant human MMP-3 (supplied by R&D Systems) in an assay buffer of 50 mM Tris-HCl, 200 mM calcium acetate at pH=7.5. The MMP-3 enzyme was preactivated by dilution to 0.119 mg/ml into 1 mM APMA (p-aminophenylmercuric acetate) followed by incubation at 37° C. for 24 hours. The substrate was prepared at a 100 μM stock solution in DMSO and a 96-well polypropylene plate was used for the reaction mixtures. To each well of the plate was added assay buffer 90.0 μl, enzyme (MMP-3) 0.3 μl and inhibitor 1 μl. The reactions were started by addition of substrate, 10 μl/well, to a total volume of 100 μl/well. The total concentration of DMSO was not above 1%. The assay was performed at ambient temperature. Product fluorescence ([…]) was monitored with a Thermo Labsystems Fluoroskan Ascent plate reader. The Ki was determined by Prism Software.
# as §1
# T1 sequence (P78536 215-824): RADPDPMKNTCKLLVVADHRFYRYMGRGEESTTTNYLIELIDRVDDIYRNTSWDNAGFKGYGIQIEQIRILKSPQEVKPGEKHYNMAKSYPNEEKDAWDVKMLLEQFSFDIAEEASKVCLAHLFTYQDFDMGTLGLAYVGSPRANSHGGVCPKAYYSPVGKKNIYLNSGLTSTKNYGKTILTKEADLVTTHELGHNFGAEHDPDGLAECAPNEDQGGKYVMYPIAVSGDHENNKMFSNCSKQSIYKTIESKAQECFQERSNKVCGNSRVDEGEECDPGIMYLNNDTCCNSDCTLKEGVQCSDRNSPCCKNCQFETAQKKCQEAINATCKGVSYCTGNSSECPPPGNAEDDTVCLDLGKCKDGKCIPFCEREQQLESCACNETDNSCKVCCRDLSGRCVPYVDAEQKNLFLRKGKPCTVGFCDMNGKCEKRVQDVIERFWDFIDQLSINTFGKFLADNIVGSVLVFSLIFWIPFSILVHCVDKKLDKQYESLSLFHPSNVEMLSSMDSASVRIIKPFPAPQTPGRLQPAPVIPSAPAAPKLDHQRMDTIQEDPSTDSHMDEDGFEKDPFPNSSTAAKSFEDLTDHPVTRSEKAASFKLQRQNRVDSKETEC
smiles,measurement,setting,value
"Cc1ccc(CCC2NC(=O)N(C(C(=O)NO)C(C)C)C2=O)cc1 (stereo not drawn) [Example 30, 2-[2,5-Dioxo-4-(2-p-tolylethyl)-imidazolidin-1-yl]-N-hydroxy-3-methyl-butyramide]",Ki(TACE)/Ki(MMP-12),[1],2200
same,Ki,[2],≤ 50 nM
same,Ki(MMP-3)/Ki(MMP-12),[3],75
"CC(C)[C@H](C(=O)NO)N1C(=O)N[C@@H](CCc2ccccc2F)C1=O [Example 36, 2-{4-[2-(2-Fluorophenyl)-ethyl]-2,5-dioxoimidazolidin-1-yl}-N-hydroxy-3-methylbutyramide]",Ki(TACE)/Ki(MMP-12),[1],280
same,Ki,[2],≤ 50 nM
same,Ki(MMP-3)/Ki(MMP-12),[3],240
"CC(C)[C@H](C(=O)NO)N1C(=O)N[C@@H](CCc2ccc(F)cc2)C1=O [Example 38, 2-{4-[2-(4-Fluoro-phenyl)-ethyl]-2,5-dioxoimidazolidin-1-yl}-N-hydroxy-3-methylbutyramide]",Ki(TACE)/Ki(MMP-12),[1],390
same,Ki,[2],≤ 50 nM
same,Ki(MMP-3)/Ki(MMP-12),[3],150
